ChEMBL document CHEMBL1287680, “C-11 diamino cryptolepine derivatives NSC748392, NSC748393, and NSC748394: anticancer profile and G-quadruplex stabilization” (Bioorg Med Chem Lett, 2010)

How the values were obtained:
Nucleic Acid [1] = settings: Homo sapiens
Description: Binding affinity to human G-quadruplex DNA assessed as change in melting temperature by FRET-melting assay

Nucleic Acid [2] = settings: Homo sapiens; remark: listed apart in the source
Description: Binding affinity to human duplex DNA assessed as change in melting temperature by FRET-melting assay

SK-OV-3 = assay: cells; settings: Homo sapiens
Description: Anticancer activity against human SKOV3 cells

OVCAR-4 = assay: cells; settings: Homo sapiens
Description: Anticancer activity against human OVCAR4 cells

OVCAR-3 = assay: cells; settings: Homo sapiens
Description: Anticancer activity against human OVCAR-3 cells

IGROV-1 = assay: cells; settings: Homo sapiens
Description: Anticancer activity against human IGROV1 cells

UACC-62 = assay: cells; settings: Homo sapiens
Description: Anticancer activity against human UACC62 cells

UACC-257 = assay: cells; settings: Homo sapiens
Description: Anticancer activity against human UACC257 cells

M14 = assay: cells; settings: Homo sapiens
Description: Anticancer activity against human M14 cells

Malme-3M = assay: cells; settings: Homo sapiens
Description: Anticancer activity against human MALME-3M cells

LOX IMVI = assay: cells; settings: Homo sapiens
Description: Anticancer activity against human LOXIMVI cells

U-251 = assay: cells; settings: Homo sapiens
Description: Anticancer activity against human U251 cells

SNB-75 = assay: cells; settings: Homo sapiens
Description: Anticancer activity against human SNB75 cells

SNB-19 = assay: cells; settings: Homo sapiens
Description: Anticancer activity against human SNB19 cells

SF-539 = assay: cells; settings: Homo sapiens
Description: Anticancer activity against human SF539 cells

SF-295 = assay: cells; settings: Homo sapiens
Description: Anticancer activity against human SF295 cells

SF-268 = assay: cells; settings: Homo sapiens
Description: Anticancer activity against human SF268 cells

NCI-H23 = assay: cells; settings: Homo sapiens
Description: Anticancer activity against human NCI-H23 cells

HOP-92 = assay: cells; settings: Homo sapiens
Description: Anticancer activity against human HOP92 cells

HOP-62 = assay: cells; settings: Homo sapiens
Description: Anticancer activity against human HOP62 cells

EKVX = assay: cells; settings: Homo sapiens
Description: Anticancer activity against human EKVX cells

SR = assay: cells; settings: Homo sapiens
Description: Anticancer activity against human SR cells

MOLT-4 = assay: cells; settings: Homo sapiens
Description: Anticancer activity against human MOLT4 cells

HL-60(TB) = assay: cells; settings: Homo sapiens
Description: Anticancer activity against human HL-60(TB) cells

CCRF-CEM = assay: cells; settings: Homo sapiens
Description: Anticancer activity against human CCRF-CEM cells

MDA-MB-468 = assay: cells; settings: Homo sapiens
Description: Anticancer activity against human MDA-MB-468 cells

MDA-MB-435 = assay: cells; settings: Homo sapiens
Description: Anticancer activity against human MDA-MB-435 cells

cells = settings: Homo sapiens, Hs-578T
Description: Anticancer activity against human Hs 578T cells

MDA-MB-231 = assay: cells; settings: Homo sapiens
Description: Anticancer activity against human MDA-MB-231 cells

NCI/ADR-RES = assay: cells; settings: Homo sapiens
Description: Anticancer activity against human NCI/ADR-RES cells

PC-3 = assay: cells; settings: Homo sapiens
Description: Anticancer activity against human PC3 cells

TK-10 = assay: cells; settings: Homo sapiens
Description: Anticancer activity against human TK10 cells

A498 = assay: cells; settings: Homo sapiens
Description: Anticancer activity against human A498 cells

in vivo = settings: mouse, cancer cell lines
Description: Toxicity in cancer cells containing hollow fiber implanted mouse

Work on CCN(CC)CCCCNc1c2ccccc2[n+](C)c2c1[nH]c1ccccc12.[Cl-] yielded a ΔTm (Nucleic Acid [1]) of 20.9 °C, a ΔTm (Nucleic Acid [2]) of 13.1 °C and a GI50 (SK-OV-3; SK-OV-3, read-out: pGI50 (converted)) of 0.251 µM. It also gave a CC50 (SK-OV-3; SK-OV-3, read-out: pLC50 (converted)) of 100 µM, a TGI (SK-OV-3; SK-OV-3, read-out: pTGI) of 1.82 µM and a GI50 (OVCAR-4; OVCAR-4, read-out: pGI50 (converted)) of 0.437 µM. For the same compound, the TGI (OVCAR-4; OVCAR-4, read-out: pTGI) was 1.7 µM, the GI50 (OVCAR-3; OVCAR-3, read-out: pGI50 (converted)) was 0.427 µM and the CC50 (OVCAR-3; OVCAR-3, read-out: pLC50 (converted)) was over 100 µM. It also gave a TGI (OVCAR-3; OVCAR-3, read-out: pTGI) of 2.45 µM, a GI50 (IGROV-1; IGROV-1, read-out: pGI50 (converted)) of 0.468 µM and a CC50 (IGROV-1; IGROV-1, read-out: pLC50 (converted)) of over 100 µM. The TGI (IGROV-1; IGROV-1, read-out: pTGI) was 7.41 µM, the GI50 (UACC-62; UACC-62, read-out: pGI50 (converted)) was 0.0832 µM and the CC50 (UACC-62; UACC-62, read-out: pLC50 (converted)) was 0.589 µM. The TGI (UACC-62; UACC-62, read-out: pTGI) was 0.234 µM, the GI50 (UACC-257; UACC-257, read-out: pGI50 (converted)) was 1.55 µM and the CC50 (UACC-257; UACC-257, read-out: pLC50 (converted)) was over 100 µM. The TGI (UACC-257; UACC-257, read-out: pTGI) was 5.75 µM, the GI50 (M14; M14, read-out: pGI50 (converted)) was 1.35 µM and the CC50 (M14; M14, read-out: pLC50 (converted)) was 7.41 µM. For the same compound, the TGI (M14; M14, read-out: pTGI) was 3.16 µM, the GI50 (Malme-3M; read-out: pGI50 (converted)) was 0.204 µM and the CC50 (Malme-3M; read-out: pLC50 (converted)) was 2.51 µM. It also gave a TGI (Malme-3M; read-out: pTGI) of 0.646 µM, a GI50 (LOX IMVI; read-out: pGI50 (converted)) of 0.331 µM and a CC50 (LOX IMVI; read-out: pLC50 (converted)) of 7.41 µM. For the same compound, the TGI (LOX IMVI; read-out: pTGI) was 1.41 µM, the GI50 (U-251; U-251, read-out: pGI50 (converted)) was 0.229 µM and the CC50 (U-251; U-251, read-out: pLC50 (converted)) was 24.5 µM. The TGI (U-251; U-251, read-out: pTGI) was 1.35 µM, the GI50 (SNB-75; SNB-75, read-out: pGI50 (converted)) was 0.347 µM and the CC50 (SNB-75; SNB-75, read-out: pLC50 (converted)) was 3.8 µM. For the same compound, the TGI (SNB-75; SNB-75, read-out: pTGI) was 1.29 µM, the GI50 (SNB-19; SNB-19, read-out: pGI50 (converted)) was 0.224 µM and the CC50 (SNB-19; SNB-19, read-out: pLC50 (converted)) was 89.1 µM. For the same compound, the TGI (SNB-19; SNB-19, read-out: pTGI) was 0.871 µM, the GI50 (SF-539; SF-539, read-out: pGI50 (converted)) was 0.427 µM and the CC50 (SF-539; SF-539, read-out: pLC50 (converted)) was 4.07 µM. For the same compound, the TGI (SF-539; SF-539, read-out: pTGI) was 1.62 µM, the GI50 (SF-295; SF-295, read-out: pGI50 (converted)) was 0.603 µM and the CC50 (SF-295; SF-295, read-out: pLC50 (converted)) was over 100 µM. The TGI (SF-295; SF-295, read-out: pTGI) was 5.01 µM, the GI50 (SF-268; SF-268, read-out: pGI50 (converted)) was 0.224 µM and the CC50 (SF-268; SF-268, read-out: pLC50 (converted)) was 33.1 µM. For the same compound, the TGI (SF-268; SF-268, read-out: pTGI) was 1.58 µM, the GI50 (NCI-H23; NCI-H23, read-out: pGI50 (converted)) was 0.191 µM and the CC50 (NCI-H23; NCI-H23, read-out: pLC50 (converted)) was 3.47 µM. It also gave a TGI (NCI-H23; NCI-H23, read-out: pTGI) of 0.724 µM, a GI50 (HOP-92; HOP-92, read-out: pGI50 (converted)) of 0.263 µM and a CC50 (HOP-92; HOP-92, read-out: pLC50 (converted)) of over 100 µM. It also gave a TGI (HOP-92; HOP-92, read-out: pTGI) of 0.955 µM, a GI50 (HOP-62; HOP-62, read-out: pGI50 (converted)) of 1.1 µM and a CC50 (HOP-62; HOP-62, read-out: pLC50 (converted)) of 61.7 µM. The TGI (HOP-62; HOP-62, read-out: pTGI) was 4.47 µM, the GI50 (EKVX; read-out: pGI50 (converted)) was 0.269 µM and the CC50 (EKVX; read-out: pLC50 (converted)) was over 100 µM. The TGI (EKVX; read-out: pTGI) was 3.63 µM, the GI50 (SR; read-out: pGI50 (converted)) was 0.372 µM and the CC50 (SR; read-out: pLC50 (converted)) was over 100 µM. For the same compound, the TGI (SR; read-out: pTGI) was 42.7 µM, the GI50 (MOLT-4; MOLT-4, read-out: pGI50 (converted)) was 0.339 µM and the CC50 (MOLT-4; MOLT-4, read-out: pLC50 (converted)) was over 100 µM. For the same compound, the TGI (MOLT-4; MOLT-4, read-out: pTGI) was 42.7 µM, the GI50 (HL-60(TB); HL-60, read-out: pGI50 (converted)) was 20.4 µM and the CC50 (HL-60(TB); HL-60, read-out: pLC50 (converted)) was over 100 µM. For the same compound, the TGI (HL-60(TB); HL-60, read-out: pTGI) was over 100 µM, the GI50 (CCRF-CEM; read-out: pGI50 (converted)) was 0.427 µM and the CC50 (CCRF-CEM; read-out: pLC50 (converted)) was over 100 µM. It also gave a TGI (CCRF-CEM; read-out: pTGI) of 2.57 µM, a GI50 (MDA-MB-468; MDA-MB-468, read-out: pGI50 (converted)) of 0.204 µM and a CC50 (MDA-MB-468; MDA-MB-468, read-out: pLC50 (converted)) of 2.14 µM. For the same compound, the TGI (MDA-MB-468; MDA-MB-468, read-out: pTGI) was 0.55 µM, the GI50 (MDA-MB-435; MDA-MB-435, read-out: pGI50 (converted)) was 0.631 µM and the CC50 (MDA-MB-435; MDA-MB-435, read-out: pLC50 (converted)) was 5.62 µM. For the same compound, the TGI (MDA-MB-435; MDA-MB-435, read-out: pTGI) was 2.09 µM, the GI50 (cells; read-out: pGI50 (converted)) was 0.269 µM and the CC50 (cells; read-out: pLC50 (converted)) was 93.3 µM. For the same compound, the TGI (cells; read-out: pTGI) was 0.955 µM, the GI50 (MDA-MB-231; MDA-MB-231, read-out: pGI50 (converted)) was over 100 µM and the CC50 (MDA-MB-231; MDA-MB-231, read-out: pLC50 (converted)) was 100 µM. It also gave a TGI (MDA-MB-231; MDA-MB-231, read-out: pTGI) of over 100 µM, a GI50 (NCI/ADR-RES; read-out: pGI50 (converted)) of 69.2 µM and a CC50 (NCI/ADR-RES; read-out: pLC50 (converted)) of over 100 µM. It also gave a TGI (NCI/ADR-RES; read-out: pTGI) of over 100 µM, a GI50 (PC-3; PC-3, read-out: pGI50 (converted)) of 0.324 µM and a CC50 (PC-3; PC-3, read-out: pLC50 (converted)) of 100 µM. The TGI (PC-3; PC-3, read-out: pTGI) was 2.24 µM, the GI50 (TK-10; TK-10, read-out: pGI50 (converted)) was 2.14 µM and the CC50 (TK-10; TK-10, read-out: pLC50 (converted)) was over 100 µM. The TGI (TK-10; TK-10, read-out: pTGI) was 8.91 µM, the GI50 (A498; A498, read-out: pGI50 (converted)) was 0.468 µM and the CC50 (A498; A498, read-out: pLC50 (converted)) was under 7.59 µM. For the same compound, the TGI (A498; A498, read-out: pTGI) was 2.04 µM and the MTD (in vivo) was 50 mg/kg.
